From patent US20260071117A1, “FUNABLE FLUORESCENT COMPOUNDS AND USES THEREOF” (Arizona Board of Regents on Behalf of the University of …, priority 2021, published 2026) come the findings set out here.

The data set is described as follows: Absorbance and fluorescence measurements (excitation maximum, emission maximum, quantum yield vs coumarin 151). The class given is physicochemical. Details: key to Quantum Yield: fraction relative to coumarin 151 in ethanol standard. To be noted: measurements run with methanol; for λex: absorbance/excitation maximum; for Quantum Yield: coumarin 151 in ethanol as standard; for Quantum Yield / λem: 2.5 mm slit width; for λem: emission maximum. An excerpt:
All reagents and solvents were acquired from commercially available suppliers and used without further purification. Methanol(dried on molecular sieves-Acroseal) was obtained from Acros. […] 1H and 13C NMR spectra were obtained on a Bruker NMR spectrometer at 500/400 and 125/100 MHz respectively. The data is reported as follows: chemical shift in ppm (δ), multiplicity (s=singlet, d=doublet, dd=doublet of doublets, t=triplet, dt=doublet of triplets, td=triplet of doublets, q=quartet, p=pentet, m=multiplet). Coupling constants are reported in Hertz (Hz) and were automatically generated using known NMR analyzer software (MestReNova), these were then subsequently curated. High-resolution mass spectra were obtained using the positive ESI method for all the compounds, obtained in an Ion Cyclotron Resonance (ICR) spectrometer. Absorbance spectra were obtained using an Agilent 8453 UV-visible spectroscopy system. Fluorescence was measured on a Varian (Agilent) Cary Eclipse Fluorimeter. Quantum yield measurements were calculated and reported using coumarin 151 in ethanol as a standard.^1 Fluorescence scans were obtained using a 2.5 mm slit width unless otherwise noted.
The fluorescence was also measured in different solvents to examine the solvent effects.

For `COc1ccc(/C=C/c2nc3nc(-c4ccc(OC)cc4)c(NC(C)(C)C)n3nc2C)cc1` [Compound 44, (E)-N-(tert-butyl)-6-(4-methoxyphenyl)-3-(4-methoxystyryl)-2-methylimidazo[1,2-b][1,2,4]triazin-7-amine], the λex is given as 486 nm, the “Quantum Yield” value amounted to 0.27 and the λem amounted to 643 nm.

Turning to `Cc1nn2c(NC(C)(C)C)c(-c3ccc([N+](=O)[O-])cc3)nc2nc1/C=C/c1ccc([N+](=O)[O-])cc1` [Compound 45, (E)-N-(tert-butyl)-2-methyl-6-(4-nitrophenyl)-3-(4-nitrostyryl)imidazo[1,2-b][1,2,4]triazin-7-amine], the λex is reported as 505 nm, the “Quantum Yield” value is on record as 0.11 and the λem is given as 655 nm.

Regarding `COc1cc(/C=C/c2nc3nc(-c4cc(OC)cc(OC)c4)c(NC(C)(C)C)n3nc2C)cc(OC)c1` [Compound 46, (E)-N-(tert-butyl)-6-(3,5-dimethoxyphenyl)-3-(3,5-dimethoxystyryl)-2-methylimidazo[1,2-b][1,2,4]triazin-7-amine], the λex is 461 nm, the “Quantum Yield” value is listed as 0.19 and the λem is 638 nm.

`Cc1nn2c(NC(C)(C)C)c(-c3cccs3)nc2nc1/C=C/c1cccs1` [Compound 47, (E)-N-(tert-butyl)-2-methyl-6-(thiophen-2-yl)-3-(2-(thiophen-2-yl)vinyl)imidazo[1,2-b][1,2,4]triazin-7-amine]: the λex was determined as 513 nm, the “Quantum Yield” value amounted to 0.33 and the λem is 647 nm.

In the case of `COc1cc(/C=C/c2nc3nc(-c4cc(OC)c(OC)c(OC)c4)c(NC(C)(C)C)n3nc2C)cc(OC)c1OC` [Compound 48, (E)-N-(tert-butyl)-2-methyl-6-(3,4,5-trimethoxyphenyl)-3-(3,4,5-trimethoxystyryl)imidazo[1,2-b][1,2,4]triazin-7-amine], the λex is 506 nm, the “Quantum Yield” value is recorded as 0.28 and the λem is 633 nm.

For `CCN(CC)c1ccc(/C=C/c2nc3nc(-c4ccc(N(CC)CC)cc4)c(NC(C)(C)C)n3nc2C)cc1` [Compound 49, (E)-N-(tert-butyl)-6-(4-(diethylamino)phenyl)-3-(4-(diethylamino)styryl)-2-methylimidazo[1,2-b][1,2,4]triazin-7-amine], the λex is on record as 566 nm, the “Quantum Yield” value came to 0.45 and the λem turned out to be 653 nm.

Take `Cc1nn2c(/N=C/c3ccccc3)c(-c3ccccc3)nc2nc1/C=C/c1ccccc1` [Compound 58, (E)-N-(2-methyl-6-phenyl-3-((E)-styryl)imidazo[1,2-b][1,2,4]triazin-7-yl)-1-phenylmethanimine]: the λex is given as 510 nm, the “Quantum Yield” value was found to be 0.04 and the λem was 601 nm.

As to `Cc1nn2c(/N=C/c3ccc4ccccc4c3)c(-c3ccc4ccccc4c3)nc2nc1/C=C/c1ccc2ccccc2c1` [Compound 59, (E)-N-(2-methyl-6-(naphthalen-2-yl)-3-((E)-2-(naphthalen-2-yl)vinyl)imidazo[1,2-b][1,2,4]triazin-7-yl)-1-(naphthalen-2-yl)methanimine], the λex is on record as 526 nm, the “Quantum Yield” value worked out at 0.04 and the λem came to 601 nm.

Regarding `COc1ccc(/C=C/c2nc3nc(-c4ccc(OC)cc4)c(/N=C/c4ccc(OC)cc4)n3nc2C)cc1` [Compound 60, (E)-1-(4-methoxyphenyl)-N-(6-(4-methoxyphenyl)-3-((E)-4-methoxystyryl)-2-methylimidazo[1,2-b][1,2,4]triazin-7-yl)methanimine], the λex worked out at 563 nm, the “Quantum Yield” value is listed as 0.19 and the λem was determined as 609 nm.
